Consider five compounds from publication PMC3810134, “Substrate and Inhibitor Specificity of the Type II p21-Activated Kinase, PAK6” (PLoS ONE, 2013).

Where two headings read alike, the source gives them in different places. No end group written: not given here.

The test system of one assay is human clinical trials. The settings on record: ref [22]; cited from earlier work. The text has this: (§1) ATP-competitive small molecule inhibitors of the type II PAKs could be useful as cancer therapeutics. […] Sunitinib (SU11248) is a potent ATP-competitive multi-kinase inhibitor that is indicated for treatment of renal cell carcinoma, imatinib-resistant gastrointestinal stromal tumors, advanced pancreatic neuroendocrine tumors and other tumor types [ ...

The next assay relates to mouse models of cancer. The following applies: ref [22]; cited from earlier work.
Excerpt: as §1

The test system of assay [1] is type II PAKs and also PAK1. The following applies: each of the type II PAKs and also PAK1; ref [22]; cited from earlier work.
Excerpt: as §1

In the next assay the target is type II PAKs. The settings on record: range over the family, ref [41], read-out: Ki (estimated range); cited from earlier work. The text has this: (§2) Therefore understanding how sunitinib binds to the type II PAKs may represent a starting point for future small molecule drug discovery. There are currently 6 co-crystal structures of protein kinases in complex with sunitinib deposited in the PDB. These kinases are of VEGFR (4AGD), KIT (3G0E), KIT-D816H mutation (3G0F), ITK (3MIY), CDK2 (3TI1) and phosphorylase kin ...

For a further assay, the system named is PAK kinases. The settings on record: ref [41], cited from earlier work.
Excerpt: as §2

The target of assay [2] is T1, PAK6 catalytic domain (residues 383–674) (Homo sapiens, UniProt Q9NQU5).
T1 construct: recombinant PAK6 catalytic domain (residues 383–674) purified as described above; 6xHis (N, cleaved yes); made in house; host or cells: E. coli BL21(DE3)
T1 sequence (Q9NQU5 383-674): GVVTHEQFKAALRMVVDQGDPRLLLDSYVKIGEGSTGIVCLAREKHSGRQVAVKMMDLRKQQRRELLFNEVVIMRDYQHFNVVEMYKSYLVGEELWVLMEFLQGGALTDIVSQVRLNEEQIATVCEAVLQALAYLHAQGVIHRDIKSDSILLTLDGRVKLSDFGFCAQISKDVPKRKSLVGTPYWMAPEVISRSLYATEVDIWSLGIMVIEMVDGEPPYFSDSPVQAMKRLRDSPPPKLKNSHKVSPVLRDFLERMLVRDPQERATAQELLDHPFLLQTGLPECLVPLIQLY
The assay can be described thus: In vitro PAK6 kinase assay (trans-inhibition by peptides, MBP substrate, radioactive). The assay is classed as biochemical. Here is the method:
Catalytic domain residues 383–674 of PAK6 (UniProt Q9NQU5) were amplified from cDNA (Open Biosystems) then subcloned into a modified pET-32 vector with an N-terminal 6xHis tag cleavable by TEV protease. A single colony of transformed E. coli BL21(DE3) was grown in Luria-Bertani (LB) medium at 37°C for 7 hours with kanamycin sulfate (100 µg/ml). Then the fresh culture was inoculated (1∶100) into in LB supplemented with kanamycin sulfate (100 µg/ml). Protein expression was induced at an A 600 of 0.4 by addition of 0.3 mM isopropyl-thio-galactopyranoside (IPTG) at 18°C for 14 hr. Cells were harvested and then resuspended in lysis buffer (50 mM HEPES pH 7.5, 500 mM NaCl, 0.5 mM TCEP, and 1 mM PMSF). Lysozyme and DNAse-I were added and the mixture was incubated on ice before three cycles of flash-freezing in a dry ice and ethanol mixture and thawing at 4°C. Following sonication and centrifugation, the supernatant was collected and loaded onto a nickel sepharose column equilibrated with 100 ml binding buffer (50 mM HEPES pH 7.5, 500 mM NaCl, 5 mM imidazole, 0.5 mM TCEP, 5% glycerol). Contaminating proteins were washed away with 200 ml wash buffer (50 mM HEPES pH 7.5, 500 mM NaCl, 30 mM imidazole, 0.5 mM TCEP, 5% glycerol). PAK6 catalytic domain was eluted with an imidazole step gradient and identified by SDS-PAGE. Overnight TEV cleavage was performed by adding TEV protease and dialyzing the mixture against size exclusion buffer (50 mM Tris pH 8, 250 mM NaCl, 5 mM TCEP). PAK6 catalytic domain was then reloaded onto the nickel sepharose column to remove remaining uncleaved protein. The sample then was loaded onto a Superdex 75 16/60 gel-filtration column equilibrated with size exclusion buffer.
Kinase activity was assessed using a radioactive assay with myelin basic protein (MBP) as substrate. […] Kinase assays were performed by adding 150 nM of PAK6, 2 µM of MBP as the substrate, 50 µM of cold-ATP and 0.1 µCi of hot [γ-^33P] ATP in Tris buffer (20 mM Tris-HCl pH 8.0, 0.15 M NaCl, 1 mM DTT and 10 mM MgCl2) for a total volume of 25 µl. […] Control peptide ([…]) was purchased from Anaspec and inhibition assays were performed using between 0.5 mM and 4.5 mM of peptide. The reaction was conducted at 30°C for 10 min and stopped by addition of 5X sample buffer and analyzed by SDS-PAGE. Gels were analyzed by exposure to phosphor storage screen (GE) followed by scanning using a Molecular Imager FX Pro Plus System (Bio-Rad) and quantification by optical densitometry Quantity One (Bio-Rad). Relative activities were compared to those measured for PAK6. Measurements were calculated from at least three independent experiments.

Setting [3] is: 150 nM PAK6, 2 µM MBP, 50 µM cold-ATP, [γ-33P] ATP, 20 mM Tris-HCl pH 8.0, 0.15 M NaCl, 1 mM DTT, 10 mM MgCl2, 30°C, 10 min, SDS-PAGE/phosphor storage screen, 3 independent experiments, tested wild-type 0.06-5.85 mM, P52L 1.8-5.85 mM, control 0.5-4.5 mM, read-out: IC50 (inhibition of PAK6 kinase activity).
Where [4] appears, read: 95% confidence interval of the IC50, 3 independent experiments, read-out: 95% confidence (of IC50).

Regarding `Cc1nc(Nc2[nH]nc3c2CN(C(=O)N[C@H](CN(C)C)c2ccccc2)C3(C)C)c2sccc2n1` [PF-3758309], the “outcome in human clinical trials” value in the assay with human clinical trials is given as “failed in human clinical trials”. Moreover, in the assay on mouse models of cancer, the “efficacy in mouse models of cancer” value is on record as “effective in mouse models of cancer”. For the same compound, the in vitro activity entry in assay [1] is “displays in vitro activity against each of the type II PAKs and also PAK1”.

For `CCN(CC)CCNC(=O)c1c(C)[nH]c(/C=C2\C(=O)Nc3ccc(F)cc32)c1C` [Sunitinib], the Ki – broadly, a dissociation constant, usually derived from enzyme kinetics or from competition with a known ligand – on type II PAKs is 0.5 to 7 µM. Moreover, the “inhibition of the PAK kinases overall” value with PAK kinases is given as “weak inhibitor”. For the same compound, the selectivity result in the assay on PAK kinases (type II vs type I PAK family members) is recorded as “selectivity for type II over type I PAK family members”.

In the case of APRTPGGRR [control peptide], in assay [2], the IC50 (as a rule, the concentration at which inhibition is half-maximal) was in the range of 3000 to 15000 µM.

For the compound RRPKLVVDP [P52L mutant peptide], the values for the IC50 in assay [2] (setting [3]) and in assay [2] (setting [4]) were 4200 µM and 3800 to 4600 µM, respectively.

RRPKPVVDP [N-terminal peptide]: the results for the IC50 in assay [2] (setting [3]) and in assay [2] (setting [4]) were 600 µM and 510 to 710 µM, respectively.
